Patent publication US8487121B2, “Chromane derivatives as TRPV3 modulators” (Glenmark Pharmaceuticals S.A., priority 2007, dated 2013)

Molecular target: T1, Human TRPV3 (Homo sapiens, UniProt Q8NET8)
T1 construct: expressed in transfected cells; host or cells: CHO cells (G-418 selected)
T1 sequence (Q8NET8 1-790): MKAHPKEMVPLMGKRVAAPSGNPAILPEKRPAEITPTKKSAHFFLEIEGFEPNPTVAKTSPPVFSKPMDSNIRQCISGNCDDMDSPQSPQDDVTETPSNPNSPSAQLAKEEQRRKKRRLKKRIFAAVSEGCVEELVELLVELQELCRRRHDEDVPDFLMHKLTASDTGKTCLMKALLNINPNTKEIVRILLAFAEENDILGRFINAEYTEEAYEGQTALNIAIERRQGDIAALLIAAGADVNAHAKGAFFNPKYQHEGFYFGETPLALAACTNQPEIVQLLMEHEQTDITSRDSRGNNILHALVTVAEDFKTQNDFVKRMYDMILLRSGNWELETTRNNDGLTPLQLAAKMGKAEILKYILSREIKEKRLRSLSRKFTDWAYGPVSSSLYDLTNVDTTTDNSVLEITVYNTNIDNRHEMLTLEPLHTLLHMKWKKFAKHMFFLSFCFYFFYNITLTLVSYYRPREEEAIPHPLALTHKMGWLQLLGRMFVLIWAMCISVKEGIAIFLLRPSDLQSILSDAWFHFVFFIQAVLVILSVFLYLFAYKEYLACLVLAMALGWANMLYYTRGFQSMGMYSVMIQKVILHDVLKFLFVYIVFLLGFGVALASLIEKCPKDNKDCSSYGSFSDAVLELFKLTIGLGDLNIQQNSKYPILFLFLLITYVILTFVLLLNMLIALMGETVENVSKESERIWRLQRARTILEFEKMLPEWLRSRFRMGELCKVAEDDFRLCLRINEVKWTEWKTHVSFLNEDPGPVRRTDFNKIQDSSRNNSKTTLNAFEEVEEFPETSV
Test: 45Calcium uptake assay: inhibition of 2-APB induced cellular uptake of radioactive calcium
Assay type: cell-based
Settings: human TRPV3 expressing CHO cells, 2-APB 500 μM; for inhibition at 1 µM: 1.0 μM compound, read-out: Percentage inhibition at 1.0 μM; for inhibition at 10 µM: 10.0 μM compound, read-out: Percentage inhibition at 10.0 μM
Excerpt: The illustrative examples of the present invention are screened for TRPV3 activity according to a modified procedure described in Toth, A. et al. Life Sciences (2003), 73, 487-498. The screening of the compounds can be carried out by other methods and procedures known to a person skilled in the art. Such screening methods may be found in Hu, H-Z., et al. J. Biol. Chem. (2004), 279, 35741-35748; Smith, G. D et al. Nature (2002), 418, 186-190 and Peier, A. M., et al. Science (2002), 296, 2046-2049.
Screening for TRPV3 Antagonist Using the ^45Calcium Uptake Assay:
The inhibition of TRPV3 receptor activation was followed as inhibition of 2-APB induced cellular uptake of radioactive calcium. Test compounds were dissolved in DMSO to prepare 20 mM stock and then diluted using plain medium with 0.1% BSA and 1.8 mM CaCl2 to get desired concentration. Final concentration of DMSO in the reaction was 0.5% (v/v). Human TRPV3 expressing CHO cells were grown in F-12 DMEM medium with 10% FBS, 1% penicillin-streptomycin solution, 400 μg/ml of G-418. Cells were seeded 24 h prior to the assay in 96 well plates so as to get ˜50,000 cells per well on the day of experiment. Cells were treated with test compounds for 10 minutes followed by addition of 2-APB at a final concentration of 500 μM and 5 μCi/ml ^45Ca^+2 for 4 minutes. Cells were washed and lysed using buffer containing 1% Triton X-100, 0.1% deoxycholate and 0.1% SDS. Radioactivity in the lysate was measured in Packardt Top count after addition of liquid scintillant.
Concentration response curves were plotted as a % of maximal response obtained in the absence of test antagonist. IC50 value was calculated from concentration response curve by nonlinear regression analysis using GraphPad PRISM software.
Percentage inhibition at concentrations of 1.0 μM and 10.0 μM are given in the table along with IC50 (nM) values for selected examples.

Row | Structure (SMILES) | inhibition at 1 µM | inhibition at 10 µM | IC50
1 | O=C(CCc1cccc(OC2CCCC2)c1)N[C@H]1CC2(CCC2)Oc2ccc(Cl)cc21 [Example 30, N-[(4S)-6-chloro-3,4-dihydrospiro[chromene-2,1′-cyclobutan]-4-yl]-3-(3-cyclopentyloxy)phenylpropanamide] | 46.8% | 80.6% | 
2 | COc1cccc(CCC(=O)N[C@H]2CC3(CCC3)Oc3c(Cl)cccc32)c1OC1CCCC1 [Example 48] |  |  | 500 to 1000 nM
3 | O=C(Cc1ccccn1)NC1CC2(CCC2)Oc2ccc(Cl)cc21 (centres unmarked) [Example 8, N-(6-Chloro-3,4-dihydrospiro[chromene-2,1′-cyclobutan]-4-yl)-2-pyridin-2-ylacetamide] | 3.8% | 22.5% | 
4 | COc1ccc(C(O)CCC(=O)NC2CC3(CCC3)Oc3ccc(Cl)cc32)c2ccccc12 (centres unmarked) [Example 102, N-(6-Chloro-3,4-dihydrospiro[chromene-2,1′-cyclobutan]-4-yl)-4-hydroxy-4-(4-methoxynaphthyl)butanamide] | 26.6% | 42.8% | 
5 | COc1cccc(CCC(=O)N[C@@H]2CC3(CCC3)Oc3ccc(Cl)cc32)c1OC1CCCC1 [Example 42] | 47.2% | 95.1% | 500 to 1000 nM
6 | COc1cccc(CCC(=O)NC2CC3(CCC3)Oc3ccc(Cl)cc32)c1OCC1CC1 (centres unmarked) [Example 41, N-(6-Chloro-3,4-dihydrospiro[chromene-2,1′-cyclobutan]-4-yl)-3-(2-cyclopropylmethoxy-3-methoxy)phenylpropanamide] | 49% | 96.4% | 500 to 1000 nM
7 | COc1ccc2ccccc2c1CCC(=O)NC1CCSc2ccc(Cl)cc21 (centres unmarked) [Example 90, N-(6-chloro-3,4-dihydro-2H-thiochromen-4-yl)-3-(2-methoxy-1-naphthyl)propanamide] | 49.2% | 91.4% | 
8 | CCCCOc1c(CCC(=O)NC2CC3(CCC3)Oc3c(Cl)cc(Cl)cc32)cccc1NS(C)(=O)=O (centres unmarked) [Example 63, N-(6,8-Dichloro-3,4-dihydrospiro[chromene-2,1′-cyclobutan]-4-yl)-3-{2-butoxy-3-[(methylsulfonyl)amino]phenyl}propanamide] | 73.3% | 97% | 
9 | O=C(Cc1ccccc1)NC1CC2(CCC2)Oc2c(Cl)cccc21 (centres unmarked) [Example 1, N-(8-Chloro-3,4-dihydrospiro[chromene-2,1′-cyclobutan]-4-yl)-2-phenylacetamide] | 1.7% | 10% | 
10 | COc1cccc(CCC(=O)NC2CC3(CCC3)Oc3ccc(Cl)cc32)c1OC (centres unmarked) [Example 38, N-(6-Chloro-3,4-dihydrospiro[chromene-2,1′-cyclobutan]-4-yl)-3-(2,3-dimethoxy)-phenylpropanamide] | 23.8% | 82.7% | 
11 | COc1cccc(CCCC(=O)NC2CC3(CCC3)Oc3c(Cl)cc(F)cc32)c1OC1CCCC1 (centres unmarked) [Example 97, N-(8-Chloro-6-fluoro-3,4-dihydrospiro[chromene-2,1′-cyclobutan]-4-yl)-4-(2-cyclopentyloxy-3-methoxyphenyl)butanamide] | 60% | 90.3% | 1000 to 2000 nM
12 | COc1cccc(CCCC(=O)N[C@H]2CC3(CCC3)Oc3c(Cl)cccc32)c1OC1CCCC1 [Example 96, (4S)—N-(8-Chloro-3,4-dihydrospiro[chromene-2,1′-cyclobutan]-4-yl)-4-(2-cyclopentyloxy-3-methoxyphenyl)butanamide] | 44.4% | 80.9% | 
13 | O=C(CCCc1ccccc1OC1CCCC1)NC1CC2(CCC2)Oc2ccc(Cl)cc21 (centres unmarked) [Example 91, N-(6-Chloro-3,4-dihydrospiro[chromene-2,1′-cyclobutan]-4-yl)-4-(2-cyclopentyloxy-phenyl)butanamide] | 51% | 82.5% | 
14 | O=C(Cc1cccc2ccccc12)NC1CC2(CCC2)Oc2ccccc21 (centres unmarked) [Example 9, N-(3,4-dihydrospiro[chromene-2,1′-cyclobutan]-4-yl)-2-(1-naphthyl)acetamide] | 11.7% | 68.5% | 
15 | O=C(CCc1ccccc1OC1CCCC1)N[C@H]1CC2(CCC2)Oc2cc(OCc3ccccc3)ccc21 [Example 33, 7-Benzyloxy-N-(3,4-dihydrospiro[chromene-2,1′-cyclobutan]-4-yl)-3-(2-cyclopentylxoyphenyl)propanamide] | 13.5% | 33.9% | 
16 | COc1cccc(CCC(=O)NC2CC3(CCCC3)Oc3ccc(Cl)cc32)c1OC1CCCC1 (centres unmarked) [Example 86, N-(6-Chloro-3,4-dihydrospiro[chromene-2,1′-cyclopentan]-4-yl)-3-(2-cyclopentyloxy-3-methoxy)propanamide] | 11.6% | 66% | 
17 | COc1cccc(CCCC(=O)NC2CC3(CCC3)Oc3cc(O)ccc32)c1OC1CCCC1 (centres unmarked) [Example 100, N-(7-Hydroxy-3,4-dihydrospiro[chromene-2,1′-cyclobutan]-4-yl)-4-(2-cyclopentyloxy-3-methoxyphenyl)butanamide] | 19.4% | 87% | 
18 | COc1cccc(CCC(=O)N[C@H]2CC3(CCC3)Oc3ccc(Cl)cc32)c1OC1CCCC1 [Example 43] | 64.6% | 91.7% | 500 to 1000 nM
19 | O=C(CCc1ccc2c(c1)OCCO2)NC1CC2(CCC2)Oc2ccc(F)cc21 (centres unmarked) [Example 81] | 29.1% | 54.8% | 
20 | O=C(CC1CCc2ccccc2C1)NC1CC2(CCC2)Oc2ccc(Cl)cc21 (centres unmarked) [Example 22, N-[(6-Chloro-3,4-dihydrospiro[chromene-2,1′-cyclobutan]-4-yl)]-2-(1,2,3,4-tetrahydronaphthalen-2-yl)acetamide] | 35.3% | 72.1% | 
21 | COc1ccc(CCC(=O)N[C@@H]2CC3(CCC3)Oc3ccc(Cl)cc32)c2ccccc12 [Example 69, N-[(4R)-6-Chloro-3,4-dihydrospiro[chromene-2,1′-cyclobutan]-4-yl)-3-(4-methoxy)-1-naphthylpropanamide] | 40.3% | 86.8% | 
22 | CCOc1cccc(CCC(=O)NC2CC3(CCC3)Oc3ccc(Cl)cc32)c1OC1CCCC1 (centres unmarked) [Example 44, N-(6-Chloro-3,4-dihydrospiro[chromene-2,1′-cyclobutan]-4-yl)-3-(2-cyclopentyloxy-3-ethoxy)phenylpropanamide] | 50.8% | 88.8% | 
23 | O=C(CCc1cccc2ccccc12)NC1CC2(CCC2)Oc2ccc(Cl)cc21 (centres unmarked) [Example 66, N-(6-Chloro-3,4-dihydrospiro[chromene-2,1′-cyclobutan]-4-yl)-3-(1-naphthyl)propanamide] | 44.6% | 92.3% | 
24 | COc1cccc(CCC(=O)NC2CC(C)(C)Oc3ccccc32)c1OC1CCCC1 (centres unmarked) [Example 88, N-(2,2-Dimethyl-3,4-dihydro-2H-chromen-4-yl)-3-(2-cyclopentyloxy-3-methoxy)phenylpropanamide] | 17.1% | 93.2% | 
25 | COc1ccc(CC(=O)NC2CC3(CCC3)Oc3ccc(Cl)cc32)cc1OC (centres unmarked) [Example 7, N-(6-Chloro-3,4-dihydrospiro[chromene-2,1′-cyclobutan]-4-yl)-2-(3,4-dimethoxyphenyl)acetamide] | 9.2% | 20.3% | 
